Assay results taken from US5401875A, “2-aminocarboxylic acids and their derivatives, processes for their preparation and their use as medicaments” (Godecke Aktiengesellschaft, priority 1988, dated 1995).
pIC50: −log10 of the molar value. Counter-ions that a name gives are not always drawn.

How the values were obtained:
[1] = biological target: T1, cycloGMP-dependent kinase (Bos taurus, UniProt P00516); experiment: G-kinase: inhibition of cyclic GMP-dependent kinase, phosphorus-32 incorporation into histone; assay type: biochemical, bovine; settings: pH 7.4; 10 μM ATP; 10 μM cGMP; 2.5 nM G-kinase
T1 construct: The enzyme was purified from bovine lung; from tissue; host or cells: bovine lung
T1 sequence (P00516 1-671): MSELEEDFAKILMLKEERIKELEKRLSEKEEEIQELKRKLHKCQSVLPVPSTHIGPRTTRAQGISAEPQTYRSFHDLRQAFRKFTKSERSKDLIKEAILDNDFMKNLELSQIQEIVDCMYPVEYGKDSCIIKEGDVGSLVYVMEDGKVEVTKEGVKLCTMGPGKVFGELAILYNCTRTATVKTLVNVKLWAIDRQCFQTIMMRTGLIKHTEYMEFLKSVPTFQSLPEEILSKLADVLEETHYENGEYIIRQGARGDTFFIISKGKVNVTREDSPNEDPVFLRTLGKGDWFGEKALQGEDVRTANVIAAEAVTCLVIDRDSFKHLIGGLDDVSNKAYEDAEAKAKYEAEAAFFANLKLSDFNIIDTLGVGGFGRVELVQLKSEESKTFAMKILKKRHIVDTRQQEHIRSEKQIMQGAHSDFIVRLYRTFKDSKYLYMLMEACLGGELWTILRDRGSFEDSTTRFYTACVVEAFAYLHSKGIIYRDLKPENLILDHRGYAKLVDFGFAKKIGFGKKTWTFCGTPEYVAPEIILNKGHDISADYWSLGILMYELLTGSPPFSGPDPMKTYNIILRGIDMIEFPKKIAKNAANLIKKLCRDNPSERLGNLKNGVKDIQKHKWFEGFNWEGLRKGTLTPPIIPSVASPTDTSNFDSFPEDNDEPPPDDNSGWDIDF
Method: The enzyme was purified from bovine lung and its activity determined via the incorporation of phosphorus 32-labelled phosphate into histone. In the test batch are contained the following components: 20 mM Tris-HCl, pH 7.4, 5 mM MgCl2, 1 mM DTT, 10 μM ATP, 10 μM cGMP, 40 μg BSA, 2% glycerol, as well as 10 μg histone II-A. The starting of the reaction takes place by addition of 2.5 nM G-kinase. Otherwise, the carrying out of the test takes place as in the case of C-kinase.

[2] = biological target: T2, myosine light chain kinase (Gallus gallus, UniProt P11799); experiment: MLC-kinase: inhibition of myosine light chain kinase, phosphorus-32 incorporation into MLC; assay type: biochemical, chicken; settings: pH 7.2; 250 μM ATP; 25 μM MLC; about 1 nM MLC kinase
T2 construct: Not only the enzyme but also the substrate (MLC) are purified from chicken stomach; from tissue; host or cells: chicken stomach
T2 sequence (P11799 935-1906 limits assumed): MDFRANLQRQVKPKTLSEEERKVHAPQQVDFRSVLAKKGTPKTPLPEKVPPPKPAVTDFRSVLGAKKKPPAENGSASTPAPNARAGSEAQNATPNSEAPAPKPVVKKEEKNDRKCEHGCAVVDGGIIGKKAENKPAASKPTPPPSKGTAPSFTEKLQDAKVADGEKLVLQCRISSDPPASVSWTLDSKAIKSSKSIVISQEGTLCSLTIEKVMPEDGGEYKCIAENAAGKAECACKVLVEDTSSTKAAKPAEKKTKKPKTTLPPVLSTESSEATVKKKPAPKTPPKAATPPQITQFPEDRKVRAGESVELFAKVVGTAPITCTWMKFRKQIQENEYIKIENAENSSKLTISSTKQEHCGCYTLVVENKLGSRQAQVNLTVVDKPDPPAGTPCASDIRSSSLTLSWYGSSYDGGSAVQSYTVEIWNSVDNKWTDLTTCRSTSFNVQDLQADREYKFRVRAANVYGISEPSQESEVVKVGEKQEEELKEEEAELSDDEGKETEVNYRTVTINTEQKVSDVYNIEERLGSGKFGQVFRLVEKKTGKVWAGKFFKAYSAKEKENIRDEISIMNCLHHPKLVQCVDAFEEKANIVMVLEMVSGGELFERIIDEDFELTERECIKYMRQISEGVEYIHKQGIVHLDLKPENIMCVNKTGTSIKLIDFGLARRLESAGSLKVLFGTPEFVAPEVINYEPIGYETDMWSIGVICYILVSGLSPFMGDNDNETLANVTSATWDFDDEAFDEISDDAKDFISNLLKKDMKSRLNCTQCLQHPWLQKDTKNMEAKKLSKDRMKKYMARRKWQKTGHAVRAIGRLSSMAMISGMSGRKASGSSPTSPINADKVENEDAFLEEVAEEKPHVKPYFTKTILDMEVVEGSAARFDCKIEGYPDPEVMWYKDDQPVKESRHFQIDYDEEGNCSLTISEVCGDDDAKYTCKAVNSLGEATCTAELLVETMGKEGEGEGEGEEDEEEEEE
Method: Not only the enzyme but also the substrate (MLC) are purified from chicken stomach. The activity measurement also takes place via the incorporation of phosphorus-32 labelled phosphate. The reaction batch of 200 μL contains the following components: 50 mM MOPS-NaOH, pH 7.2, 5 mM MgCl2, 100 μM CaCl2, 100 nM calmodulin, 1 mM DTT, 250 μM ATP, as well as 25 μM MLC. The reaction is started by addition of about 1 nM MLC kinase; otherwise, the carrying out of the test takes place as in the case of C-kinase.

[3] = biological target: T3, cycloAMP-dependent kinase (Homo sapiens, UniProt P17612); experiment: A-kinase: inhibition of cyclic AMP-dependent kinase (commercially available catalytic subunit), phosphorus-32 incorporation into histone; assay type: biochemical; settings: pH 7.5; 40 μM ATP; histone-H-2B; read-out: Inhibition of cAMP-kinase, IC50-values
T3 construct: purchased
Method: The measurement of the activity takes place with the commercially available catalytic subunit of the enzyme. The incorporation of phosphorus-32 labelled phosphate into histone is thereby measured. The reaction batch of 200 μL contains the following components: 50 mM PIPES-NaOH, pH 7.5, 10 mM MgCl2, 1 mM DTT, 40 μM ATP, as well as 50 μg histone-H-2B. The carrying out of the test takes place as in the case of C-kinase.

protein kinase C = experiment: C-kinase: inhibition of protein kinase C, incorporation of phosphorus-32 labelled phosphate in histone; assay type: biochemical, rat brain or chicken stomach smooth muscle; settings: pH 7.5; 10 μM ATP; 5 nM PKC; 5 min at 30° C.
Method: The enzyme is purified from rat brain or smooth muscle (chicken stomach). Its activity is determined via the incorporation of phosphorus-32 labelled phosphate in histone. The reaction batch of 200 μL contains the following components: 50 mM HEPES-NaOH, pH 7.5, 5 mM MgCl2, 1 mM DTT, 4 μM free Ca^2+, 10 μM ATP, 1 μg phosphatidylserine, 0.2 μg 1,2-diolein, as well as 40 μg histone H-1. The batch is preincubated for 4 minutes at 30° C. and the reaction then started by addition of 5 nM PKC. After 5 minutes incubation at 30° C. the reaction is stopped with 10% TCA and the samples then filtered off. The phosphate incorporation is determined by means of Cerenkov counting in a scintillation counter.

| Structure (SMILES) | pIC50 [1] | pIC50 [2] | pIC50 [3] | pIC50 (protein kinase C) |
| --- | --- | --- | --- | --- |
| CCCCCCCCCCCCCCCCCCOCC(CN(C)C)OC(C)=O (racemic) [A, (±)1-dimethylamino-3-octadecyloxy-2-propyl acetate hydrochloride] | < 4.00 | < 4.00 | < 4.00 | 5.30 |
| CCCCCCCCCCOCC(CN1CCC(CN)(c2ccccc2)CC1)OCCCCCCCCCC (stereo not drawn) [B] | 4.55 | 5.29 | 4.54 | 5.15 |
| CCCCCCCCCCCCCCCCCCOCC(O)CN(C)C(CO)C(=O)O (stereo not drawn) [Example 1, 2-[N-Methyl-N-(3-octadecyloxy-2-hydroxypropyl)]-amino-3-hydroxypropionic acid hydrochloride] | < 4.00 | < 4.00 | < 4.00 | 5.60 |
